Patent US10648035B2, “Methods and compositions for diagnosing and treating gastric cancer” (THE JOHNS HOPKINS UNIVERSITY, priority 2012, dated 2020)

Key:
[1] = tested on: claudin-11 mRNA expression in AGS gastric cancer cells; assay: Claudin-11 mRNA re-expression in AGS cells after demethylating treatment (qRT-PCR); assay type: cell-based; design: claudin-11 mRNA expression, ratio of treated vs. untreated cells: dose or concentration left out as unconfirmed
Text: FIG. 23. Claudin-11 mRNA re-expression in AGS gastric cancer cells after treatment with 5-Aza-dC. AGS is a gastric cancer cell line manifesting hypermethylation of the claudin-11 promoter in conjunction with absent claudin-11 mRNA expression (FIG. 17). Total RNAs from AGS cells before and after 5-aza-2-deoxycytidine treatment were subjected to quantitative real-time RT-PCR analysis. The Y-axis represents the expression ratio of 5-aza-dC-treated vs. untreated cells. […] This restoration of claudin-11 expression after 5-Aza-dC treatment supports our hypothesis that claudin-11 is silenced by promoter hypermethylation in GC cells.
[…] Total RNAs extracted before vs. after treatment were subjected to qRT-PCR for CLDN11.

Barx1 expression in AGS = assay: Barx1 mRNA re-expression in AGS after 5-Aza-dC treatment; assay type: cell-based; settings: AGS cells after treatment

Nc1ncn([C@H]2C[C@H](O)[C@@H](CO)O2)c(=O)n1 [5-Aza-dC, 5-aza-2-deoxycytidine]
CLDN11 mRNA re-expression ([1]; 1 μM, varying time intervals): CLDN11 mRNA became more re-expressed | claudin-11 mRNA expression, ratio of treated vs. untreated cells ([1]; first 72 hrs. of treatment): time-dependent increase in claudin-11 mRNA expression | Barx1 mRNA re-expression (Barx1 expression in AGS): restoration of Barx1 expression | Barx1 mRNA re-expression (Barx1 expression in AGS; listed as 5-AzaC): BARX mRNA re-expression
